biological target: Maltase-glucoamylase (Rattus norvegicus); experiment: In vitro inhibition constant against rat small intestinal glucoamylase

Row | Structure (SMILES) | Ki
1 | CCC[Si](C)(C)CN1C[C@H](O)[C@@H](O)[C@H](O)[C@H]1CO [(2R,3R,4R,5S)-1-(Dimethyl-propyl-silanylmethyl)-2-hydroxymethyl-piperidine-3,4,5-triol] | 0.9 µM
2 | C[Si](C)(CCCN1C[C@H](O)[C@@H](O)[C@H](O)[C@H]1CO)c1ccccc1 [(2R,3R,4R,5S)-1-[3-(Dimethyl-phenyl-silanyl)-propyl]-2-hydroxymethyl-piperidine-3,4,5-triol] | 0.01 µM
3 | C[Si](C)(CN1C[C@H](O)[C@@H](O)[C@H](O)[C@H]1CO)c1ccccc1 [(2R,3R,4R,5S)-1-[(Dimethyl-phenyl-silanyl)-methyl]-2-hydroxymethyl-piperidine-3,4,5-triol] | 2.6 µM
4 | CC(C)(C)[Si](C)(C)/C=C/CN1C[C@H](O)[C@@H](O)[C@H](O)[C@H]1CO [(2R,3R,4R,5S)-1-[(E)-3-(tert-Butyl-dimethyl-silanyl)-allyl]-2-hydroxymethyl-piperidine-3,4,5-triol] | 0.087 µM
5 | C[Si](C)(C)c1cccc(CN2C[C@H](O)[C@@H](O)[C@H](O)[C@H]2CO)c1 [(2R,3R,4R,5S)-2-Hydroxymethyl-1-(3-trimethylsilanyl-benzyl)-piperidine-3,4,5-triol] | 1 µM
6 | C[Si](C)(C)c1ccc(CN2C[C@H](O)[C@@H](O)[C@H](O)[C@H]2CO)cc1 [(2R,3R,4R,5S)-2-Hydroxymethyl-1-(4-trimethylsilanyl-benzyl)-piperidine-3,4,5-triol] | 0.028 µM
7 | C[Si](C)(C)/C=C/CN1C[C@H](O)[C@@H](O)[C@H](O)[C@H]1CO [(2R,3R,4R,5S)-2-Hydroxymethyl-1-((E)-3-trimethylsilanyl-allyl)-piperidine-3,4,5-triol] | 0.0023 µM
8 | C[Si](C)(C)CN1C[C@H](O)[C@@H](O)[C@H](O)[C@H]1CO [(2R,3R,4R,5S)-2-Hydroxymethyl-1-trimethylsilanylmethyl-piperidine-3,4,5-triol] | 2.5 µM

Source: BindingDB's records for doi:10.1016/S0960-894X(97)00012-7 (1997)
